Values joined by “and” are separate entries in the source; they are usually repeats but may differ in a detail not shown here. Equal entries are not always repeated.
Assays:
Assay type in all cases: in vivo, mouse
MEK-1 phosphorylation = test: Striatal phospho-MEK-1 immunohistochemistry 1 h after single injection; settings: single injection 20 mg/kg i.p., individual mice
Protocol: (§1) Immunohistochemistry was performed as described in Papale et al ([2016]). Briefly, 1 h after blocking in 5% normal goat serum and 0.1% Triton X‐100 solution, free‐floating sections were incubated overnight at 4°C with one of the following primary antibodies: anti‐phospho‐p44/42 MAP kinase (Thr202/Tyr204) (1:200, Cell Signaling Technology #9101), anti‐phospho–Elk‐1 (Ser383) (1:100, Cell Signaling #9181), anti‐phospho‐Kv4.2 (Thr607)‐R (1:100, Santa Cruz sc22254‐R), anti‐phospho‐MSK‐1 (1:100 Cell Signaling Technology #9595), anti‐phospho‐MEK1/2 (Ser218/222) (1:100, sc‐7995 Santa Cruz Biotechnology), c‐Fos (1:100, sc‐52 Santa Cruz Biotechnology), tyrosine Hydroxylase (monoclonal 1:1,000, Sigma Aldrich, Italy) and anti‐DARPP‐32 (H3) (1:100, Santa Cruz Biotechnology, #sc‐271111) overnight at 4°C. […]
(§2) For in vivo immunohistochemistry experiments, images were acquired from the dorsal striatum using a Leica DM IRB microscope under a 20× objective. The number of p‐ERK, p‐MSK‐1, p‐ELK, p‐MEK‐1, p‐VG K+, c‐Fos, and DARPP‐32 positive cells was counted in 2–3 consecutive sections per mouse, bilaterally and averaged across the sections using the ImageJ software by a blind investigator to the condition. Estimation of nigral cell loss was assessed by quantifying the number of TH‐immunopositive neurons of the SNc in 360 μm‐spaced sections for each animal.

[1] = test system: procedural learning (nose poke responses); test: 9-hole operant boxes, FR1 nose poke, zQ175 mice with RB5; settings: for Nose poke responses (FR1): 9 days of treatment, 20 mg/kg i.p.; for FR1 nose poke, AUC analysis: 20 mg/kg i.p. 1 h before session
Protocol: Operant testing was conducted in 16 9‐hole operant boxes as previously described (Yhnell et al, [2016a]). Each operant box contains a horizontal array of nine holes with infrared beams localized to the front of each hole to detect nose pokes. A peristaltic pump delivers liquid reinforcement (strawberry milk) into a magazine at the front of the box.
A week before starting the training, mice underwent water restriction for 18 h/day and were kept under this regimen throughout the experimental procedures. Mice were taught to nose poke on a simple fixed ratio (FR1) schedule of reinforcement: to obtain reward, mice were required to respond to a stimulus light in the central hole via a single nose poke. zQ175 mice were trained daily on this program for 20‐min sessions for 10 days (training phase). Once trained, animals were subdivided into four groups and injected with RB5 or scramble (20 mg/kg, i.p.) peptides 1 h before being tested on the FR1 schedule for the other 9 days. At the end of the behavioral tests, mice were perfused with 4% PFA, and brains were processed for IHC or IF.

[2] = test system: 3-NP-induced striatal apoptosis; test: TUNEL assay in striatum, 3-NP model with RB5; settings: 7 days, individual mice
Protocol: The detection of apoptosis on cultured cells or tissue sections was carried out using the DeadEnd™ Colorimetric TUNEL System kit (Promega). Cultured cells were fixed in 4% PFA for 15 min at room temperature before undergoing TUNEL staining. Tissue sections were obtained from mice perfused with 4% PFA. Brains were subsequently stored in 30% sucrose overnight and cut into 35 μm‐thick slices using a freezing microtome. Slices were mounted on slides and processed for TUNEL staining. TUNEL was performed following the manufacturer's instructions. Briefly, slides were immersed in PBS for 5 min RT and then incubated for 25 min in a […] Proteinase K solution. Then, the slides were rinsed in 1× PBS, re‐fixed in 4% PFA for 5 min, and rinsed twice with 1× PBS. […] of equilibration buffer were added to each tissue section for 5–10 min followed by 1 h of incubation at 37°C in a humidified chamber with […] of rTdT reaction mix. After that, slides were immersed in 2× SSC solution in a Coplin jar for 15 min and washed twice in PBS 1× for 5 min. The endogenous peroxidase activity was blocked with 0.3% hydrogen peroxide for 5 min. The slides were rinsed twice in 1× PBS for 5 min and incubated for 30 min with Streptavidin HRP solution and finally DAB substrate was added to react for 10 min. A light microscope was used to acquire four representative fields per slide from cultured cells and 3–4 representative slices per mouse from all experimental groups. The number of TUNEL positive cells was counted using ImageJ software.
3‐NP (3‐Nitropropionic acid) (N5636, Sigma) was dissolved in distilled water to a concentration of 50 mg/ml (pH 7.4) and passed through a 0.2‐μm filter and kept at −80°C until use. The 3‐NP solution was administered i.p. once daily at a dose of 50 mg/kg either for 21 consecutive days in the LV‐injected mice or for 7 days in combination with RB5.

pMSK-1 = test: Striatal pMSK-1 immunohistochemistry 1 h after single injection; settings: single injection 20 mg/kg i.p., individual mice
Protocol: as §1, §2

pELK = test: Striatal pELK immunohistochemistry 1 h after single injection; settings: single injection 20 mg/kg i.p., individual mice
Protocol: as §1, §2

c-Fos = test: Striatal c-Fos immunohistochemistry 1 h after single injection; settings: single injection 20 mg/kg i.p., individual mice
Protocol: as §1, §2

contextual fear memory = test: Contextual fear conditioning, Tg2576 and WT mice; set-up: unit not given here; settings: 7 months, 20 mg/kg i.p. 1 h before CFC, test 24 h later, individual mice
Protocol: Tg2576 mice were administered with RB5 or Scramble (20 mg/kg i.p.) for either 7 days, for IHC analysis, or with a single injection (20 mg/kg i.p.), for behavioral analysis.
7‐month‐old Tg2576 mice and WT mice were treated with either Scramble or RB5 (20 mg/kg, i.p.) 1 h before CFC. Mice were individually placed in the conditioning chamber for 120 s of free exploration followed by five foot‐shocks (0.7 mA, 2‐s duration, separated by 60‐s intervals) delivered through the grid floor. Context Fear Memory was assessed 24 h later by returning mice for 5 min to the conditioning chamber and not delivering a foot shock.
For all protocols, freezing behavior served as a measure of conditioned fear to the context during the conditioning and retrieval tests.

[3] = peptide 20 mg/kg i.p. twice a day plus 3-NP 50 mg/kg i.p. once a day
[4] = peptide 20 mg/kg i.p. twice a day plus saline

Row | Substance | p-MEK-1 positive cells in striatum (MEK-1 phosphorylation) | FR1 nose poke, AUC analysis ([1]; WT females, treatment day 1) | FR1 nose poke, AUC analysis ([1]; WT females, treatment day 2) | FR1 nose poke, AUC analysis ([1]; WT females, treatment day 3) | FR1 nose poke, AUC analysis ([1]; WT females, treatment day 4) | FR1 nose poke, AUC analysis ([1]; WT females, treatment day 5) | FR1 nose poke, AUC analysis ([1]; WT females, treatment day 6) | FR1 nose poke, AUC analysis ([1]; WT females, treatment day 7) | FR1 nose poke, AUC analysis ([1]; WT females, treatment day 8) | FR1 nose poke, AUC analysis ([1]; WT females, treatment day 9) | FR1 nose poke, AUC analysis ([1]; zQ175 females, treatment day 1) | FR1 nose poke, AUC analysis ([1]; zQ175 females, treatment day 2) | FR1 nose poke, AUC analysis ([1]; zQ175 females, treatment day 3) | FR1 nose poke, AUC analysis ([1]; zQ175 females, treatment day 4) | FR1 nose poke, AUC analysis ([1]; zQ175 females, treatment day 5) | FR1 nose poke, AUC analysis ([1]; zQ175 females, treatment day 6) | FR1 nose poke, AUC analysis ([1]; zQ175 females, treatment day 7) | FR1 nose poke, AUC analysis ([1]; zQ175 females, treatment day 8) | FR1 nose poke, AUC analysis ([1]; zQ175 females, treatment day 9) | TUNEL positive cells in striatum [2, 3] | also measured
1 | GRKKRRQRRRPPQGGGGGEPRRTEGVGPGVPGEVEMVKGQPFDV [RB5, six D-amino acids, acetylated N-terminus] | did not influence the phosphorylation and 335.714 and 385.714 and 421.429 and 400 and 314.286 and 271.429 and 307.143 and 464.286 and 371.429 and 428.571 and 392.857 and 285.714 and 500 | 696.2 | 784.67 | 771.56 | 796.53 | 786.86 | 819.62 | 786.91 | 844.4 | 832.09 | 293.69 | 300.15 | 373.09 | 374.4 | 384.76 | 413.69 | 454.91 | 338.07 | 338.07 | significantly reduced neuronal death and 87.8049 and 8.8692 and 39.0244 and 107.72 and 134.65 and 179.533 and 163.212 and 136.585 and 117.073 | Nose poke responses (FR1) ([1]; WT and zQ175 females): significantly enhanced responses; Nose poke responses (FR1) ([1]; zQ175 males): did not alter responses; TUNEL positive cells in striatum [2, 4]: 29.2683 and 60.9756 and 89.7666 and 81.606 and 71.8133 and 143.627 and 134.65 and 43.3604; pMSK-1 positive cells in striatum (pMSK-1): selectively activated and 947.619 and 433.333 and 542.857 and 395.238 and 690.476 and 838.095 and 642.857 and 1019.05 and 728.571 and 490.476 and 328.571 and 904.762 and 1233.33 and 671.429; pELK positive cells in striatum (pELK): selectively activated and 980.952 and 828.571 and 933.333 and 1047.62 and 938.095 and 852.381 and 1080.95 and 1147.62 and 700 and 838.095 and 761.905 and 809.524 and 871.429 and 766.667; c-Fos positive cells in striatum (c-Fos): selectively activated and 771.429 and 809.524 and 757.143 and 976.19 and 723.81 and 795.238 and 914.286 and 857.143 and 814.286 and 852.381 and 738.095 and 761.905 and 961.905 and 728.571; Freezing behavior, contextual fear memory (contextual fear memory; Tg2576 mice): fully prevented the memory impairment and 56.33 and 63.67 and 67 and 57.33 and 84 and 76.33 and 95.67 and 82.67; Freezing behavior, contextual fear memory (contextual fear memory; WT mice): 93.33 and 94.33 and 78 and 88.33 and 70.33 and 78.33 and 85
2 | SCR: ineffective Scramble version of RB5 containing a TAT sequence (GRKKRRQRRRPPRVGPGVPEGVGVAVFGVKEPGQTGDVGPVGE) [reference compound] | 385.714 and 492.857 and 471.429 and 371.429 and 478.571 and 335.714 and 407.143 and 328.571 and 342.857 and 257.143 and 442.857 and 264.286 and 542.857 | 426 | 494 | 529 | 551 | 606 | 632 | 637 | 652 | 625 | 79.44 | 88.63 | 81.25 | 82.51 | 86.56 | 92.15 | 90.83 | 92.99 | 83.24 | 360.976 and 175.61 and 179.533 and 215.44 and 403.95 and 136.585 and 370.732 | TUNEL positive cells in striatum [2, 4]: 87.8049 and 58.5366 and 107.72 and 89.7666 and 104.728 and 165.854; pMSK-1 positive cells in striatum (pMSK-1): 614.286 and 328.571 and 409.524 and 680.952 and 885.714 and 485.714 and 509.524 and 319.048 and 571.429 and 461.905 and 338.095 and 209.524 and 466.667 and 700 and 519.048; pELK positive cells in striatum (pELK): 323.81 and 423.81 and 452.381 and 228.571 and 433.333 and 633.333 and 371.429 and 404.762 and 166.667 and 219.048 and 309.524 and 280.952 and 295.238 and 195.238 and 133.333; c-Fos positive cells in striatum (c-Fos): 461.905 and 395.238 and 423.81 and 380.952 and 419.048 and 352.381 and 438.095 and 376.19 and 604.762 and 404.762 and 590.476 and 552.381 and 490.476 and 290.476; Freezing behavior, contextual fear memory (contextual fear memory; Tg2576 mice): 28.67 and 36 and 36.67 and 25.33 and 43.67 and 29.67 and 28; Freezing behavior, contextual fear memory (contextual fear memory; WT mice): 96.67 and 87.67 and 96.33 and 88.67 and 64 and 57.67 and 82.67
